Converted amounts (≈) assume the structure as drawn. “And” between values parts separate entries of the source, which are not always exact repeats. Equal values may be shown once. Read-outs that look alike come from different tables or passages of the source.
Assays:
[1] = test system: Pseudomonas aeruginosa strain PaR2; assay: microbe, parasite or virus in culture; type: cell-based
Source text: (§1) The MICs of the antibiotics were previously defined for each strain, by the method of microdilution in a liquid medium (CLSI (Clinical and Laboratory Standards Institute), 2003).

[2] = test system: Pseudomonas aeruginosa strain ATCC 27853 (wild type); assay: MIC of the compounds used alone, microdilution in a liquid medium (CLSI); type: cell-based; settings: P. aeruginosa ATCC 27853
Source text: as §1

[3] = test system: Escherichia coli strain ATCC 25922 (wild type); assay: as above; type: cell-based; settings: E. coli ATCC 25922
Source text: as §1

[4] = test system: ESBL-producing strain of Escherichia coli, having an associated resistance to the aminoglycosides (EcR3); assay: as above; type: cell-based; settings: Cx1 alone (first value of cell)
Source text: as §1

[5] = test system: penicillinase-producing strain of Escherichia coli without associated resistance (EcR1); assay: as above; type: cell-based; settings: Cx1 alone (first value of cell)
Source text: as §1

[6] = test system: Pseudomonas aeruginosa strain PaR3; assay: as above; type: cell-based
Source text: as §1

[7] = test system: mucoid strain of Pseudomonas aeruginosa PaR5; assay: as above; type: cell-based
Source text: as §1

[8] = test system: cephalosporinase-hyperproducing strain of Escherichia coli (EcR2); assay: as above; type: cell-based; settings: Cx1 alone (first value of cell)
Source text: as §1

[9] = test system: Staphylococcus aureus strain ATCC 29213 (wild type); assay: as above; type: cell-based; settings: S. aureus ATCC 29213
Source text: as §1

[10] = test system: MRSA strain without associated resistance (SaR1); assay: as above; type: cell-based, Staphylococcus aureus; settings: SaR1
Source text: as §1

[11] = test system: MRSA strain having a resistance to the aminoglycosides, fluoroquinolones, macrolides-lincosamides-synergistins and ofloxacin (SaR4); assay: as above; type: cell-based, Staphylococcus aureus; settings: SaR4
Source text: as §1

[12] = test system: MRSA strain having a resistance to the aminoglycosides and fluoroquinolones (SaR3); assay: as above; type: cell-based, Staphylococcus aureus; settings: SaR3
Source text: as §1

[13] = test system: PaR2: Pseudomonas aeruginosa; type: cell-based
Method: (§2) The bacterial and antibiogramidentification is carried out by the VITEK 2 system (bioMérieux) and by the disk diffusion technique

[14] = test system: EcR3: ESBL-Producing Escherichia coli; assay: Antibiogram by the disk diffusion technique; type: cell-based
Method: The bacterial and antibiogramidentification is carried out by the VITEK 2 system (bioMerieux) and by the disk diffusion technique

[15] = test system: SaR3: Meticillin-Resistant Staphylococcus aureus; assay: Antibiogram by the disk diffusion technique; type: cell-based; settings: for CA-SFM Interpretation: Cd CA-SFM 2011; for Diameter: Table E1; for Results: Table E1, against Dmin Dmax; for diameter in mm: Table E2
Method: as §2

[16] = test system: PaR5: Pseudomonas aeruginosa; assay: Antibiogram by the disk diffusion technique; type: cell-based
Method: as §2

[17] = test system: Escherichia coli, Staphylococcus aureus and Pseudomonas aeruginosa strains; assay: Chessboard technique, summary statements over all strains and combinations tested; type: cell-based; settings: strain not stated
Method in brief: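 Checkerboard of 64 antibiotic/Cx1 concentration combinations per strain. FIC index classed as synergy (≤0.5), additive (>0.5–1), indifferent (>1–4) or antagonism (>4). Each strain and combination tested at least 3 times.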

[18] = test system: EcR1: Penicillinase-Producing Escherichia coli without Associated Resistance; assay: Antibiogram by the disk diffusion technique; type: cell-based
Method: 5.1 EcR1: Penicillinase-Producing Escherichia coli without Associated Resistance The bacterial and antibiogramidentification is carried out by the VITEK 2 system (bioMérieux) and by the disk diffusion technique.

[19] = test system: SaR1: Meticillin-Resistant Staphylococcus aureus without Associated Resistance; assay: Antibiogram, MIC by the VITEK 2 system; type: cell-based; settings: SaR1; for CA-SFM Interpretation: Cc CA-SFM 2011; for EUCAST Interpretation: Cc EUCAST 2011; for Results: from MIC
Method: (§3) The bacterial and antibiogramidentification is carried out by the VITEK 2 system (bioMérieux)

[20] = test system: SaR1: Meticillin-Resistant Staphylococcus aureus without Associated Resistance; assay: Antibiogram, inhibition diameter (Table D1); type: cell-based; settings: for Results: from diameter, against Dmin Dmax
Method: as §3

[21] = MIC of the compounds used alone, microdilution in a liquid medium (CLSI); type: cell-based, Staphylococcus aureus; settings: Staphylococcus aureus, MRSA; antibiotic alone (second value of cell); SaR4; read-out: MIC
Source text: as §1

[22] = test system: SaR4: Meticillin-Resistant Staphylococcus aureus; assay: Antibiogram, MIC by the VITEK 2 system; type: cell-based; settings: SaR4; for CA-SFM Interpretation: Cc CA-SFM 2011; for EUCAST Interpretation: Cc EUCAST 2011; for MIC: Staphylococcus aureus, read-out: MIC
Method: as §2

[23] = Cx1 alone (first value of cell)
[24] = Pseudomonas aeruginosa, antibiotic alone (second value of cell), read-out: MIC
[25] = Staphylococcus aureus, MRSA, antibiotic alone (second value of cell), read-out: MIC
[26] = antibiotic alone (second value of cell)

para-guanidinoethylcalix[4]arene [Cx1]
MIC [1, 23]: 32 µg/mL | MIC [2, 23]: 32 µg/mL | Initial MICs (mg/L), Cx1 ([2]; Cx1 alone): 32/32 mg/L and 32 mg/L | Initial MICs [3, 23]: 4 mg/L and 2 mg/L | Initial MICs (mg/L) [3, 23]: 4/4 mg/L | Initial MICs (mg/L), Cx1 ([3]; Cx1 alone): 4 mg/L | Initial MICs [4]: 2 mg/L | Initial MICs (mg/L) [4]: 2/2 mg/L | Initial MICs [5]: 2 mg/L | MIC [6, 23]: 32 µg/mL | MIC mg/L [6, 23]: 32/32 mg/L | MIC [7, 23]: 32 µg/mL | MIC mg/L [7, 23]: 32/32 mg/L | Initial MICs [8]: 2 mg/L | Initial MICs (mg/L) [8]: 2/2 mg/L | Initial MICs [9, 23]: 8 mg/L | Initial MICs (mg/L) [9, 23]: 8/8 mg/L | Initial MICs (mg/L), Cx1 ([9]; Cx1 alone): 8 mg/L | MIC [10, 23]: 8 µg/mL | MIC [11, 23]: 8 µg/mL | MIC [12, 23]: 8 µg/mL | MIC mg/L [12, 23]: 8/8 mg/L

C[C@@H]1O[C@@H]1P(=O)(O)O [Fosfomycin]
CA-SFM Interpretation ([13]; Cd CA-SFM 2011): Resistant | Diameter ([13]; Table G1): 13 mm | Results ([13]; Table G1, against Dmin-Dmax): Resistant | diameter in mm ([13]; Table G2): 13 mm | MIC [1, 24]: 64 µg/mL (≈ 464 µM) | CA-SFM Interpretation ([14]; Cd CA-SFM 2011): Susceptible | CLSI Interpretation ([14]; Cd CLSI 2011): Susceptible | Diameter ([14]; Table C1): 23 mm | Results ([14]; Table C1, against Dmin Dmax): Susceptible | diameter in mm ([14]; Table C2): 23 mm | CA-SFM Interpretation [15]: Susceptible | Diameter [15]: 26 mm | Results [15]: Susceptible | diameter in mm [15]: 26 mm | Diameter ([16]; PaR5, Table I1): 30 mm | Results ([16]; PaR5, Table I1, against Dmin-Dmax): Susceptible | diameter in mm ([16]; disk diffusion inhibition diameter, strain PaR5): 30 mm | CA-SFM Interpretation ([16]; disk diffusion, PaR5, versus critical diameter CA-SFM 2011): Susceptible | interaction between the antibiotic and Cx1 [17]: synergism | MIC mg/L (diameter in mm) ([18]; EcR1, cells that print a diameter, Table A2): 24 mm | CA-SFM Interpretation ([18]; EcR1, diameter against CA-SFM 2011 limits): Susceptible | CLSI Interpretation ([18]; EcR1, diameter against CLSI 2011 limits): Susceptible | Diameter ([18]; EcR1, disk diffusion, Table A1): 24 mm | Results ([18]; EcR1, interpretation of the diameter against Dmin Dmax, Table A1): Susceptible | CA-SFM Interpretation [19]: Susceptible | EUCAST Interpretation [19]: Susceptible | Results ([19]; Table D1): Susceptible | MIC mg/L ([19]; Table D2): ≦8 mg/L | MIC ([19]; Staphylococcus aureus, Table D1, read-out: MIC): ≤ 8 µg/mL | MIC ([2]; Pseudomonas aeruginosa, ATCC27853, antibiotic alone (second value of cell), read-out: MIC): 16 µg/mL | MIC [6, 24]: > 64 µg/mL | MIC [7, 24]: 16 µg/mL | MIC ([9]; Staphylococcus aureus, ATCC29213, antibiotic alone (second value of cell), read-out: Initial MICs): 8 µg/mL | Diameter [20]: 40 mm | Results [20]: Susceptible | MIC [10, 25]: 2 µg/mL | MIC [21]: 128 µg/mL | MIC [12, 25]: 16 µg/mL | Results ([22]; Table F1, MIC): Resistant | CA-SFM Interpretation ([22]; from MIC): Resistant | EUCAST Interpretation ([22]; from MIC): Resistant | MIC ([22]; Table F1): ≥ 64 µg/mL | MIC ([22]; Table F2, MIC): ≥ 64 µg/mL

CC1(C)S[C@@H]2[C@H](NC(=O)Cc3ccccc3)C(=O)N2[C@H]1C(=O)O [Penicillin G]
CA-SFM Interpretation [15]: Resistant | CLSI Interpretation ([15]; Cd CLSI 2011): Resistant | EUCAST Interpretation ([15]; Cd EUCAST 2011): Resistant | Diameter [15]: 26 mm | Results [15]: Resistant | diameter in mm [15]: 26 mm | CA-SFM Interpretation [19]: Resistant | CLSI Interpretation ([19]; Cc CLSI 2011): Resistant | EUCAST Interpretation [19]: Resistant | MIC mg/L ([19]; Table D1): ≧0.5 mg/L | Results ([19]; Table D1): Resistant | MIC mg/L ([19]; Table D2): ≧0.5 mg/L | Initial MICs [9, 26]: 1 mg/L | Diameter [20]: 28 mm | Results [20]: Resistant | MIC [10, 26]: 0.5 µg/mL | MIC [11, 26]: 4 µg/mL | MIC [12, 26]: 0.5 µg/mL | Results ([22]; Table F1, MIC): Resistant | CA-SFM Interpretation ([22]; from MIC): Resistant | CLSI Interpretation ([22]; from MIC, Cc CLSI 2011): Resistant | EUCAST Interpretation ([22]; from MIC): Resistant

Reference: patent publication US20140066365A1, “USE OF CALIXARENES ASSOCIATED WITH AN ANTIBIOTIC IN THE TREATMENT OF BACTERIAL INFECTIONS” (priority 2011, published 2014)
